Assay: solvent given as SMILES

## O=[N+]([O-])c1cc(Cl)ccc1Cl
In C1CCCCC1
  solvation free energy, 298 K: -8.11 kcal/mol
In CC1CCCCC1
  solvation free energy, 298 K: -8.06 kcal/mol
In CC#N
  solvation free energy, 298 K: -9.34 kcal/mol
In CC(C)CC(C)(C)C
  solvation free energy, 298 K: -7.63 kcal/mol
In CC(C)CCO
  solvation free energy, 298 K: -8.13 kcal/mol
In CC(C)CO
  solvation free energy, 298 K: -8.01 kcal/mol
In CC(C)O
  solvation free energy, 298 K: -8.07 kcal/mol
In CCC(C)O
  solvation free energy, 298 K: -7.92 kcal/mol
In CCCCCC
  solvation free energy, 298 K: -7.77 kcal/mol
In CCCCCCC
  solvation free energy, 298 K: -7.77 kcal/mol
In CCCCCCCC
  solvation free energy, 298 K: -7.75 kcal/mol
In CCCCCCCCCC
  solvation free energy, 298 K: -7.74 kcal/mol
In CCCCCCCCCCCC
  solvation free energy, 298 K: -7.71 kcal/mol
In CCCCCCCCCO
  solvation free energy, 298 K: -8.13 kcal/mol
In CCCCCCCCO
  solvation free energy, 298 K: -8.18 kcal/mol
In CCCCCCCO
  solvation free energy, 298 K: -8.19 kcal/mol
In CCCCCCO
  solvation free energy, 298 K: -8.22 kcal/mol
In CCCCCO
  solvation free energy, 298 K: -8.23 kcal/mol
In CCCCO
  solvation free energy, 298 K: -8.23 kcal/mol
In CCCO
  solvation free energy, 298 K: -8.23 kcal/mol
In CCO
  solvation free energy, 298 K: -8.32 kcal/mol
In COC(C)=O
  solvation free energy, 298 K: -9.35 kcal/mol
In Cc1cccc(C)c1
  solvation free energy, 298 K: -9.25 kcal/mol
In Cc1ccccc1
  solvation free energy, 298 K: -9.28 kcal/mol

## BrCCBr
In C1COCCO1
  solvation free energy, 298 K: -5.84 kcal/mol
In ClC(Cl)(Cl)Cl
  solvation free energy, 298 K: -5.33 kcal/mol
In O
  solvation free energy, 298 K: -2.2 kcal/mol

## c1ccc2c(c1)Cc1ccccc1C2
In O
  solvation free energy, 298 K: -3.78 kcal/mol

## CCF
In C1CCOC1
  solvation free energy, 298 K: -1.79 kcal/mol
In CCCCCCC
  solvation free energy, 298 K: -1.45 kcal/mol
In CN1CCCC1=O
  solvation free energy, 298 K: -1.86 kcal/mol
In CN(C)C=O
  solvation free energy, 298 K: -1.95 kcal/mol
In O
  solvation free energy, 298 K: 0.41 kcal/mol

## FS(F)(F)(F)(F)F
In Brc1ccccc1
  solvation free energy, 298 K: 0.67 kcal/mol
In C1CCOC1
  solvation free energy, 298 K: 0.05 kcal/mol
In C1COCCO1
  solvation free energy, 298 K: 0.52 kcal/mol
In CC1COC(=O)O1
  solvation free energy, 298 K: 0.98 kcal/mol
In CC#N
  solvation free energy, 298 K: 0.25 kcal/mol
In CC(=O)N(C)C
  solvation free energy, 298 K: 0.76 kcal/mol
In CC(C)(C)O
  solvation free energy, 298 K: -0.11 kcal/mol
In CC(C)=O
  solvation free energy, 298 K: -0.07 kcal/mol
In CC(C)CC(C)(C)C
  solvation free energy, 298 K: -0.47 kcal/mol
In CC(C)CO
  solvation free energy, 298 K: 0.1 kcal/mol
In CCC(C)O
  solvation free energy, 298 K: 0.26 kcal/mol
In CCCCCC
  solvation free energy, 298 K: -0.41 kcal/mol
In CCCCCCC
  solvation free energy, 298 K: -0.32 kcal/mol
In CCCCCCCC
  solvation free energy, 298 K: -0.23 kcal/mol
In CCCCCCCCC
  solvation free energy, 298 K: -0.16 kcal/mol
In CCCCCCCCCC
  solvation free energy, 298 K: -0.06 kcal/mol
In CCCCCCCCCCC
  solvation free energy, 298 K: 0 kcal/mol
In CCCCCCCCCCCC
  solvation free energy, 298 K: 0.06 kcal/mol
In CCCCCCCCCCCCC
  solvation free energy, 298 K: 0.12 kcal/mol
In CCCCCCCCCCCCCC
  solvation free energy, 298 K: 0.15 kcal/mol
In CCCCCCCCCCCCCCC
  solvation free energy, 298 K: 0.18 kcal/mol
In CCCCCCCCCCCCCCCC
  solvation free energy, 298 K: 0.22 kcal/mol
In CCCCCCCCCCCO
  solvation free energy, 298 K: 0.49 kcal/mol
In CCCCCCCCCCO
  solvation free energy, 298 K: 0.47 kcal/mol
In CCCCCCCCCO
  solvation free energy, 298 K: 0.43 kcal/mol
In CCCCCCCCO
  solvation free energy, 298 K: 0.41 kcal/mol
In CCCCCCCO
  solvation free energy, 298 K: 0.37 kcal/mol
In CCCCCCO
  solvation free energy, 298 K: 0.34 kcal/mol
In CCCCCO
  solvation free energy, 298 K: 0.29 kcal/mol
In CCCCO
  solvation free energy, 298 K: 0.26 kcal/mol
In CCCO
  solvation free energy, 298 K: 0.18 kcal/mol
In CCO
  solvation free energy, 298 K: 0.14 kcal/mol
In CN(C)C=O
  solvation free energy, 298 K: 0.83 kcal/mol
In CN(C)P(=O)(N(C)C)N(C)C
  solvation free energy, 298 K: 0.66 kcal/mol
In CNC=O
  solvation free energy, 298 K: 1.02 kcal/mol
In CO
  solvation free energy, 298 K: 0.26 kcal/mol
In CS(C)=O
  solvation free energy, 298 K: -0.05 kcal/mol
In Cc1ccc(C)cc1
  solvation free energy, 298 K: 0.19 kcal/mol
In Cc1cccc(C)c1
  solvation free energy, 298 K: 0.19 kcal/mol
In Cc1ccccc1C
  solvation free energy, 298 K: 0.27 kcal/mol
In ClC(Cl)(Cl)Cl
  solvation free energy, 298 K: -0.03 kcal/mol
In Clc1ccccc1
  solvation free energy, 298 K: 0.35 kcal/mol
In N#Cc1ccccc1
  solvation free energy, 298 K: 0.71 kcal/mol
In O
  solvation free energy, 298 K: 3.04 kcal/mol
In O=C1CCCC1
  solvation free energy, 298 K: 0.49 kcal/mol
In O=C1CCCCC1
  solvation free energy, 298 K: 0.52 kcal/mol

## CCCCCC#N
In CCCCCCCCCCCCCCCC
  solvation free energy, 298 K: -4.68 kcal/mol
In CCCCCCCCO
  solvation free energy, 298 K: -5.54 kcal/mol
In O
  solvation free energy, 298 K: -3.28 kcal/mol
In [2H]O[2H]
  solvation free energy, 298 K: -3.25 kcal/mol

## CCCC(=O)CCC
In CCCCOCCCC
  solvation free energy, 298 K: -5.6 kcal/mol
In CO
  solvation free energy, 298 K: -5.77 kcal/mol
In O
  solvation free energy, 298 K: -2.92 kcal/mol

## COc1cc(C=O)cc(-c2cc(C=O)cc(OC)c2O)c1O
In CCC(C)=O
  solvation free energy, 298 K: -21.9 kcal/mol
In Cc1ccccc1
  solvation free energy, 298 K: -19.6 kcal/mol
In ClC=CCl
  solvation free energy, 298 K: -20.6 kcal/mol

## CCCI
In C=CCCCCCCCCCCCCCC
  solvation free energy, 298 K: -4.16 kcal/mol
In ClC(Cl)(Cl)Cl
  solvation free energy, 298 K: -4.97 kcal/mol
In O
  solvation free energy, 298 K: -0.56 kcal/mol

## CCCCCCc1cccc2ccccc12
In OCCOCCO
  solvation free energy, 298 K: -8.95 kcal/mol

Source: the CombiSolv-Exp solvation set (Vermeire and Green 2021)
